Measured values as given in patent publication US9000153B2, “Imidazo[4,5-c]quinolines as DNA-PK inhibitors” (Merck Patent GmbH, priority 2010, dated 2015).
Where two headings read alike, the source gives them in different places.

Experiments:
DNA-PK [1] = target: T1, DNA-PK (Homo sapiens (Human), UniProt P78527); assay: DNA-PK/biochemical assay (FlashPlate kinase assay); conditions: 5 μM ATP, 90 min, room temperature
Experimental: The kinase assay was carried out in streptavidin-coated […] microtitre FlashPlates®. To this end, 1.5 μg of the DNA-PK/protein complex and 100 ng of biotinylated substrate, such as, for example, PESQEAFADLWKK biotin-NH2 (“biotin-DNA-PK peptide”), in a total volume of 36.5 μl (34.25 mM HEPES/KOH, 7.85 mM Tris-HCl, 68.5 mM KCl, 5 μM ATP, 6.85 mM MgCl2, 0.5 mM EDTA, 0.14 mM EGTA, 0.69 mM DTT, pH 7.4), were incubated at room temperature for 90 min with 500 ng of DNA from calf thymus, 0.1 μCi of 33P-ATP and 1.8% of DMSO per well with or without the test compound. The reaction was stopped using 50 μl/well of 200 mM EDTA. After incubation for a further 30 min at room temperature, the liquid was removed. Each well was washed three times with 100 μl of 0.9% sodium chloride solution. A non-specific reaction (blank value) was determined using 10 μM of a proprietary kinase inhibitor. The radioactivity measurement was carried out by means of a TopCount. IC50 values were calculated in RS1 (Kashishian et al. (2003) Molecular Cancer Therapeutics 1257).

[2] = system: kinases of the PI3K isoenzyme family; conditions: cited from earlier work
mammal cells = conditions: in cellular terms; cited from earlier work
DNA-PK [3] = target: T1, DNA-PK; conditions: cited from earlier work

SMILES | IC50 (DNA-PK [1]) [nM] | further results
COc1cc2ncc3c(c2cc1-c1ccn[nH]1)n(-c1ccc(C#N)cc1F)c(=O)n3C [Compound 39, 3-Fluoro-4-[7-methoxy-3-methyl-2-oxo-8-(2H-pyrazol-3-yl)-2,3-dihydroimidazo[4,5-c]quinolin-1-yl]benzonitrile] | < 100 | 
COc1cc2ncc3c(c2cc1-c1cc(C(F)(F)F)nn1C)n(-c1ccc(C#N)cc1F)c(=O)n3C [Compound 40, 3-Fluoro-4-[7-methoxy-3-methyl-8-(2-methyl-5-trifluoromethyl-2H-pyrazol-3-yl)-2-oxo-2,3-dihydro-imidazo[4,5-c]quinolin-1-yl]-benzonitrile] | 100 to 500 | 
COc1cc2ncc3c(c2cc1/C=C/c1ccsc1)n(-c1ccc(C#N)cc1F)c(=O)n3C [Compound 41, 3-Fluoro-4-[7-methoxy-3-methyl-2-oxo-8-((E)-2-thiophen-3-yl-viniyl)-2,3-dihydroimidazo-[4,5-c]quinolin-1-yl]benzonitrile] | < 100 | 
COc1cc2ncc3c(c2cc1CCc1ccsc1)n(-c1ccc(C#N)cc1F)c(=O)n3C [Compound 42, 3-Fluoro-4-[7-methoxy-3-methyl-2-oxo-8-(2-thiophen-3-ylethyl)-2,3-dihydroimidazo[4,5-c]-quinolin-1-yl]benzonitrile] | 100 to 500 | 
COc1cc2ncc3c(c2cc1/C=C/c1ccccc1)n(-c1ccc(C#N)cc1F)c(=O)n3C [Compound 43, 3-Fluoro-4-[7-methoxy-3-methyl-2-oxo-8-((E)-styryl)-2,3-dihydroimidazo[4,5-c]quinolin-1-yl]benzonitrile] | 100 to 500 | 
CCN1CCN(CC(=O)Nc2ccc(-c3cccc4c(=O)cc(N5CCOCC5)oc34)c3sc4ccccc4c23)CC1 [KU-0060648] |  | inhibition of PI3K isoenzyme family kinases [2]: potently inhibited
O=c1cc(N2CCOCC2)oc2c(-c3ccccc3)cccc12 [LY294002] |  | increase in sensitivity to ionising irradiation (mammal cells): only a weak increase
O=c1cc(N2CCOCC2)oc2c(-c3cccc4c3sc3ccccc34)cccc12 [NU-7441] |  | IC50 (DNA-PK [3]): 20 nM
